Results published in ChEMBL document CHEMBL1143749, “A new therapeutic approach in Alzheimer disease: some novel pyrazole derivatives as dual MAO-B inhibitors and antiinflammatory analgesics” (Bioorg Med Chem, 2007).
pIC50, pKi: −log10 of the molar value.

Columns and labels:
[1] = target: T1, Amine oxidase [flavin-containing] A (Rattus norvegicus, UniProt P21396); test: Inhibition of rat liver MAOA after 60 mins pre-incubation
T1 sequence (P21396 whole entry): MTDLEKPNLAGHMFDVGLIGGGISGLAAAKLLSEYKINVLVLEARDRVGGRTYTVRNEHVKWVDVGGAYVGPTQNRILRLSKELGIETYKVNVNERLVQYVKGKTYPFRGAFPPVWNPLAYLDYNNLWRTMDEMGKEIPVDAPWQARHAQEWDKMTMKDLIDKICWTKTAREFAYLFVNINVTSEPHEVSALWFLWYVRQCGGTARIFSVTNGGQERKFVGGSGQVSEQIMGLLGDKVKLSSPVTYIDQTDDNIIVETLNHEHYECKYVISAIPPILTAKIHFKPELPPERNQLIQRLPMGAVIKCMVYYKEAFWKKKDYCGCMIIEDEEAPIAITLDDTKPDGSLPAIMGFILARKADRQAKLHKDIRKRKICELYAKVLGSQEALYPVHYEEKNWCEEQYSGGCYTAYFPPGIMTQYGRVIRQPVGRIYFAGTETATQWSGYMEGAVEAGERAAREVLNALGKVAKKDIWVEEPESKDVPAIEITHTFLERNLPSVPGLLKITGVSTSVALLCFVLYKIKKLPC

[2] = target: T2, Amine oxidase [flavin-containing] B (Rattus norvegicus, UniProt P19643); test: Inhibition of rat liver MAOB after 60 mins pre-incubation
T2 sequence (P19643 whole entry): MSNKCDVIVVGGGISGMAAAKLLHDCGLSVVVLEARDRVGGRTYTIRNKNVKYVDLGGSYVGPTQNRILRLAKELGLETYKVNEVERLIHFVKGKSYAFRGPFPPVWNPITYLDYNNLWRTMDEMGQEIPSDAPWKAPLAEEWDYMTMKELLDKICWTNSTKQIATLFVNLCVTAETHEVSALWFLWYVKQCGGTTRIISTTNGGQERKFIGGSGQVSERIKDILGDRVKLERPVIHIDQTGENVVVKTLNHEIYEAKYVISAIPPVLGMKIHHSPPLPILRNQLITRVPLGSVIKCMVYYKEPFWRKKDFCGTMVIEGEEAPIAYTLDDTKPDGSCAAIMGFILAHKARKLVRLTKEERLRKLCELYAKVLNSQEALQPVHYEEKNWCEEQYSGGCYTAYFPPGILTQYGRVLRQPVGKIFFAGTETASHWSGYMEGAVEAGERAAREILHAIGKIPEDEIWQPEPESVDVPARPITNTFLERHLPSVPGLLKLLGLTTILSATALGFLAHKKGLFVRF

Mus musculus [3] = test: Analgesic activity against p-Benzoquinone-induced writhings in Swiss Albino mouse assessed as number writhings at 100 mg/kg, po; type: functional
Mus musculus [4] = test: Inhibition of p-Benzoquinone-induced writhings in Swiss Albino mouse at 100 mg/kg, po relative to control; type: functional; conditions: for inhibition in vivo at 100 mg/kg: Mus musculus, Swiss Albino, po
Mus musculus [5] = test: Toxicity in Swiss Albino mouse assessed as ulcerogenic abdomen lesions at 100 mg/kg, po; type: organism-based; parameters: dose 100 mg/kg, route oral; conditions: in vivo
Mus musculus [6] = test: Inhibition of carrageenan-induced hind paw oedema in Swiss Albino mouse at 100 mg/kg, po after 90 mins relative to control; type: functional; conditions: for inhibition in vivo at 100 mg/kg: Mus musculus, Swiss Albino, po, 1.5 h
Mus musculus [7] = test: Inhibition of carrageenan-induced hind paw oedema in Swiss Albino mouse at 100 mg/kg, po after 180 mins relative to control; type: functional; conditions: for inhibition in vivo at 100 mg/kg: Mus musculus, Swiss Albino, po, 3 h
Mus musculus [8] = test: Inhibition of carrageenan-induced hind paw oedema in Swiss Albino mouse at 100 mg/kg, po after 270 mins relative to control; type: functional; conditions: for inhibition in vivo at 100 mg/kg: Mus musculus, Swiss Albino, po, 4.5 h
Mus musculus [9] = test: Inhibition of carrageenan-induced hind paw oedema in Swiss Albino mouse at 100 mg/kg, po after 360 mins relative to control; type: functional; conditions: for inhibition in vivo at 100 mg/kg: Mus musculus, Swiss Albino, po, 6 h
[10] = target: T1, Amine oxidase [flavin-containing] A; test: Inhibition of rat liver MAOA
Mus musculus [11] = test: Inhibition of acetic acid-induced capillary permeability in Swiss Albino mouse at 100 mg/kg, po; type: functional
[12] = target: T2, Amine oxidase [flavin-containing] B; test: Inhibition of rat liver MAOB
Mus musculus [13] = test: Inhibition of acetic acid-induced capillary permeability in Swiss Albino mouse at 10 mg/kg, po; conditions: read-out: Inhibition

Compound	pIC50 [1]	pIC50 [2]	writhing count (Mus musculus [3]) [writhings]	inhibition in vivo at 100 mg/kg (Mus musculus [4]) [%]	Activity (Mus musculus [5])	inhibition in vivo at 100 mg/kg (Mus musculus [6]) [%]	inhibition in vivo at 100 mg/kg (Mus musculus [7]) [%]	inhibition in vivo at 100 mg/kg (Mus musculus [8]) [%]	inhibition in vivo at 100 mg/kg (Mus musculus [9]) [%]	Inhibition (Mus musculus [4]) [%]	Inhibition (Mus musculus [6]) [%]	Inhibition (Mus musculus [7]) [%]	Inhibition (Mus musculus [8]) [%]	Inhibition (Mus musculus [9]) [%]	pKi [10]	inhibition in vivo at 100 mg/kg (Mus musculus [11]) [%]	pKi [12]	Activity (Mus musculus [3])	inhibition in vivo at 10 mg/kg (Mus musculus [13]) [%]
CCNC(=S)N1N=C(c2ccc(C)cc2)CC1c1ccc[nH]1 (stereo not drawn)	3.48	3.43	41.3	15.4	Non-toxic	4.9	10.5	12.4	16.3										
Cc1ccc(C2=NN(C(=S)Nc3ccccc3)C(c3ccc[nH]3)C2)cc1 (stereo not drawn)	3.52	3.45	45.2		Non-toxic					7.4	9.1	13.1	6.1	11.8					
CNC(=S)N1N=C(c2ccc(Cl)cc2)CC1c1ccc[nH]1 (stereo not drawn)	4.95	3.38	37.8	22.5			6.6	7.2	1.9						4.88	20.7			
CCCNC(=S)N1N=C(c2ccc(Cl)cc2)CC1c1ccc[nH]1 (stereo not drawn)	4.53	3.38	20.5	57.9	Non-toxic	19.8	25.2	23.9	28.1						4.48	28.3			
CCNC(=S)N1N=C(c2ccc(OC)cc2)CC1c1ccc[nH]1 (stereo not drawn)	3.40	4.66	21.2	56.6	Non-toxic	23.2	22.7	18.9	27.6							25.9	4.62		
CCCNC(=S)N1N=C(c2ccc(OC)cc2)CC1c1ccc[nH]1 (stereo not drawn)	3.39	4.54	19.5	60	Non-toxic	20.3	23.6	22.6	32.8							34.8	4.47		
CCNC(=S)N1N=C(c2ccc(Cl)cc2)CC1c1ccc[nH]1 (stereo not drawn)	4.70	3.35	21.5	55.9	Non-toxic	16.1	21.3	20.6	24						4.57	23.5			
CNC(=S)N1N=C(c2ccc(OC)cc2)CC1c1ccc[nH]1 (stereo not drawn)	3.37	4.90	39.2	19.7	Non-toxic	14.2	14.7	10.5	17.7								4.90		
CNC(=S)N1N=C(c2ccc(C)cc2)CC1c1ccc[nH]1 (stereo not drawn)	3.53	3.46	39.7	18.6	Non-toxic	13.2	11.2	12.2	16.3										
CCCNC(=S)N1N=C(c2ccc(C)cc2)CC1c1ccc[nH]1 (stereo not drawn)	3.43	3.41	25.3	48.2	Non-toxic	14.6	20.9	15.7	22.7										
COc1ccc(C2=NN(C(=S)Nc3ccccc3)C(c3ccc[nH]3)C2)cc1 (stereo not drawn)	3.37	4.52	25.2	48.4	Non-toxic	20.7	22.6	16.5	21.6							22.3	4.43		
Cl.S=C(Nc1ccccc1)N1N=C(c2ccc(Cl)cc2)CC1c1ccc[nH]1 (stereo not drawn)	4.23	3.36			Non-toxic										4.22				
CC(=O)Oc1ccccc1C(=O)O [ASPIRIN]				54.3														22.3	
COc1ccc2c(c1)c(CC(=O)O)c(C)n2C(=O)c1ccc(Cl)cc1 [INDOMETHACIN]						32.3	37.1	33.6	42.2										48.1
C#CCN(C)Cc1ccccc1 [PARGYLINE]	3.41	5.55																	
